The record followed here is patent publication US11192852B2, “Pyrazolyl and pyrimidinyl tricyclic enones as antioxidant inflammation modulators” (REATA PHARMACEUTICALS, INC., priority 2010, dated 2021).

The pIC50 is −log10 of the IC50, conventionally taken in molar units.

This assay has as its system IFNγ-induced NO production in RAW264.7 mouse macrophages. Briefly: Suppression of IFNγ-induced nitric oxide production (Griess reagent). Format: cell-based. The conditions noted are these: 2 h pre-treatment (0-200 nM), then IFNγ 24 h, normalized to cell viability. An excerpt: Nitric Oxide Production and Cell Viability.
The mark [1] stands for this setting: Mus musculus, RAW264.7, RAW264.7 cells.

pIC50: −log10 of the molar value.

In the case of `Cn1ncc2c1[C@@]1(C)C=C(C#N)C(=O)C(C)(C)[C@@H]1CC2` [TX63342], the pIC50 under setting [1] was 6.74.
For the compound `CC1(C)C(=O)C(C#N)=C[C@]2(C)[C@@H](O)CCC[C@@H]12` [TX63363], under setting [1], the pIC50 was less than 6.70.
The same measure, in the same setting: the same measure for `COCO[C@H]1CCC[C@H]2C(C)(C)C(=O)C(C#N)=C[C@]12C` [TX63364]: less than 6.70.
Take `Cn1cc2c(n1)[C@@]1(C)C=C(C#N)C(=O)C(C)(C)[C@@H]1CC2` [TX63432]: the pIC50 (RAW264.7 cells) was 6.78.
As for `Cn1cc2c(n1)[C@@]1(C)C=C(C#N)C(=O)C(C)(C)[C@H]1C2` [TX63436], the pIC50 under setting [1] was less than 6.70.
Regarding `CC1(C)C(=O)C(C#N)=C[C@]2(C)c3nn(C4CCCCC4)cc3CC[C@@H]12` [TX63444], the pIC50 under setting [1] is 6.85.
`Cn1nc2c(c1Br)CC[C@H]1C(C)(C)C(=O)C(C#N)=C[C@]21C` [TX63445]: under setting [1], the pIC50 was 7.42.
In the case of `CC1(C)C(=O)C(C#N)=C[C@]2(C)c3nn(C(C)(C)C)cc3CC[C@@H]12` [TX63450], the pIC50 under setting [1] was 6.83.
Still for that read-out and setting: for `CC1(C)C(=O)C(C#N)=C[C@]2(C)C(=O)c3cnn(C(C)(C)C)c3C[C@@H]12` [TX63451] the value was 6.86; for `CC1(C)C(=O)C(C#N)=C[C@]2(C)c3nn(CC(F)(F)F)cc3CC[C@@H]12` [TX63454], 6.87; for `CC1(C)C(=O)C(C#N)=C[C@]2(C)c3nn(-c4ccccc4)cc3CC[C@@H]12` [TX63455], 6.96.
With `CC1(C)C(=O)C(C#N)=C[C@]2(C)C(=O)c3cnn(-c4ccccc4)c3C[C@@H]12` [TX63456], under setting [1], the pIC50 is less than 6.70.
For `COC(=O)n1cc2c(n1)[C@@]1(C)C=C(C#N)C(=O)C(C)(C)[C@@H]1CC2` [TX63462], under setting [1], the pIC50 is 6.83.
Turning to `CC(=O)n1cc2c(n1)[C@@]1(C)C=C(C#N)C(=O)C(C)(C)[C@@H]1CC2` [TX63463], the pIC50 under setting [1] is no more than 6.69.
Consider `CC1(C)C(=O)C(C#N)=C[C@]2(C)c3nn(CCO)cc3CC[C@@H]12` [TX63464], for which, under setting [1], the pIC50 is less than 6.70.
On the same count and under the same terms, for `CC1(C)C(=O)C(C#N)=C[C@]2(C)c3nn(-c4[nH]nc5c4CC[C@H]4C(C)(C)C(=O)C(C#N)=C[C@]54C)cc3CC[C@H]12` [TX63466] the value was 7.98; for `CC1(C)C(=O)C(C#N)=C[C@]2(C)c3[nH]ncc3CC[C@@H]12` [TX63467], less than 6.70; for `Cn1nc2c(c1-c1cccc(Cl)c1)CC[C@H]1C(C)(C)C(=O)C(C#N)=C[C@]21C` [TX63485], 7.47.
On to `Cn1nc2c(c1-c1ccc(Cl)cc1)CC[C@H]1C(C)(C)C(=O)C(C#N)=C[C@]21C` [TX63486], for which, under setting [1], the pIC50 was 7.32.
For `Cn1cc2c(n1)[C@@]1(C)C=C(C#N)C(=O)C3(CCCC3)[C@@H]1CC2` [TX63487], the pIC50 under setting [1] is 7.07.
`Cn1nc2c(c1-c1ccccc1Cl)CC[C@H]1C(C)(C)C(=O)C(C#N)=C[C@]21C` [TX63491]: the negative logarithm of the IC50 (pIC50) under setting [1] was 7.46.
The same measure, in the same setting: for `Cn1nc2c(c1-c1ccccc1)CC[C@H]1C3(CCCC3)C(=O)C(C#N)=C[C@]21C` [TX63504] the value was 7.70.
On the same count and under the same terms, the same measure for `Cn1nc2c(c1-c1ccc(F)cc1)CC[C@H]1C(C)(C)C(=O)C(C#N)=C[C@]21C` [TX63507]: 7.41; for `Cc1ccccc1-c1c2c(nn1C)[C@@]1(C)C=C(C#N)C(=O)C(C)(C)[C@@H]1CC2` [TX63508]: 7.48; for `COc1ccccc1-c1c2c(nn1C)[C@@]1(C)C=C(C#N)C(=O)C(C)(C)[C@@H]1CC2` [TX63509]: 7.42.
The same measure, in the same setting: for `Cc1ccc(-c2c3c(nn2C)[C@@]2(C)C=C(C#N)C(=O)C(C)(C)[C@@H]2CC3)cc1` [TX63514] the value was 7.43; for `COc1ccc(-c2c3c(nn2C)[C@@]2(C)C=C(C#N)C(=O)C(C)(C)[C@@H]2CC3)cc1` [TX63515], 7.46.
Turning to `CC1(C)C(=O)C(C#N)=C[C@]2(C)c3c(cnn3-c3ccccc3)CC[C@@H]12` [TX63524], the pIC50 under setting [1] was 7.17.
Take `COc1ncc2c(n1)[C@@]1(C)C=C(C#N)C(=O)C(C)(C)[C@@H]1CC2` [TX63528]: the pIC50 under setting [1] is 7.07.
On to `Cc1nc(-c2ccccc2)c2c(n1)[C@@]1(C)C=C(C#N)C(=O)C(C)(C)[C@@H]1CC2` [TX63529], for which the pIC50 under setting [1] was 7.34.
As to `C[C@@H]1C(=O)C(C#N)=C[C@]2(C)c3nn(C)cc3C[C@@H]12` [TX63533], the pIC50 under setting [1] is less than 6.70.
As for `CC(C)c1ncc2c(n1)[C@@]1(C)C=C(C#N)C(=O)C(C)(C)[C@@H]1CC2` [TX63534], the negative-log IC50 (pIC50) under setting [1] was 7.31.
As to `CC1(C)C(=O)C(C#N)=C[C@]2(C)c3ncncc3CC[C@@H]12` [TX63542], the pIC50 under setting [1] is 7.26.
`CC1(C)C(=O)C(C#N)=C[C@]2(C)c3nn(-c4ccccc4)c(-c4ccccc4)c3CC[C@@H]12` [TX63544]: the pIC50 under setting [1] is 7.41.
For the compound `C[C@@H]1C(=O)C(C#N)=C[C@]2(C)c3nn(C)cc3CC[C@@H]12` [TX63551], the pIC50 under setting [1] was 7.31.
Turning to `CC1(C)C(=O)C(C#N)=C[C@]2(C)c3[nH]c(=O)ncc3CC[C@@H]12` [TX63553], under setting [1], the pIC50 was less than 6.70.
For `Cn1cc2c(n1)[C@@]1(C)C=C(C#N)C(=O)C(C)(C)[C@@H]1C2` [TX63559], under setting [1], the pIC50 is less than 6.70.
In the case of `CC1(C)C(=O)C(C#N)=C[C@]2(C)c3nc(C(F)(F)F)ncc3CC[C@@H]12` [TX63567], under setting [1], the pIC50 is 7.37.
On the same count and under the same terms, for `Cn1nc2c(c1-c1ccccc1)CC[C@H]1CC(=O)C=C[C@]21C` [TX63570] the value was less than 6.70.
As to `Cn1nc2c(c1-c1ccccc1)CCC1=CC(=O)C=C[C@@]12C` [TX63578], the pIC50 under setting [1] was less than 6.70.
With `CC1(C)C(=O)C(C#N)=C[C@]2(C)c3[nH]nc(-c4ccccc4)c3CC[C@@H]12` [TX63579], the pIC50 under setting [1] is 7.66.
As to `CC1(C)C(=O)C(C#N)=C[C@]2(C)c3nc(-c4ccc(Cl)cc4)ncc3CC[C@@H]12` [TX63582], the pIC50 under setting [1] was 7.48.
In the case of `Cc1cccc(-c2ncc3c(n2)[C@@]2(C)C=C(C#N)C(=O)C(C)(C)[C@@H]2CC3)c1` [TX63583], the pIC50 under setting [1] is 7.48.
For `Cn1nc2c(c1-c1ccc(Oc3ccccc3)cc1)CC[C@H]1C(C)(C)C(=O)C(C#N)=C[C@]21C` [TX63587], under setting [1], the pIC50 is 7.40.
Regarding `CC[C@@H]1C(=O)C(C#N)=C[C@]2(C)c3nn(C)cc3CC[C@@H]12` [TX63589], the pIC50 under setting [1] is 7.36.
`COc1ccc(-c2ncc3c(n2)[C@@]2(C)C=C(C#N)C(=O)C(C)(C)[C@@H]2CC3)cc1` [TX63590]: the negative-log IC50 (pIC50) under setting [1] was 7.51.
`Cn1nc2c(c1C1CCCCC1)CC[C@H]1C(C)(C)C(=O)C(C#N)=C[C@]21C` [TX63591]: the pIC50 under setting [1] is 7.13.
For the compound `Cn1nc2c(c1NC(=O)OC(C)(C)C)CC[C@H]1C(C)(C)C(=O)C(C#N)=C[C@]21C` [TX63594], the pIC50 under setting [1] was less than 6.70.
As to `COc1nc(C)nc2c1CC[C@H]1C(C)(C)C(=O)C(C#N)=C[C@]21C` [TX63595], the pIC50 under setting [1] is 7.70.
Regarding `Cn1nc2c(c1-c1ccc3ccccc3c1)CC[C@H]1C(C)(C)C(=O)C(C#N)=C[C@]21C` [TX63600], the pIC50 under setting [1] is 7.23.
Regarding `Cn1nc2c(c1-c1ccccc1)CC[C@H]1C(Cc3ccccc3)(Cc3ccccc3)C(=O)C(C#N)=C[C@]21C` [TX63601], the pIC50 under setting [1] is 6.82.
Take `Cn1nc2c(c1-c1cccc3ccccc13)CC[C@H]1C(C)(C)C(=O)C(C#N)=C[C@]21C` [TX63603]: the pIC50 under setting [1] was 7.21.
On the same count and under the same terms, the same measure for `C[C@@H]1C(=O)C(C#N)=C[C@]2(C)c3nn(C)c(Br)c3CC[C@@H]12` [TX63606]: 7.96; for `CC(=O)n1nc2c(c1-c1ccccc1)CC[C@H]1C(C)(C)C(=O)C(C#N)=C[C@]21C` [TX63611]: 7.66; for `CC1(C)C(=O)C(C#N)=C[C@]2(C)c3nc(-c4ccccc4Cl)ncc3CC[C@@H]12` [TX63612]: 7.37.
Take `Cn1nc2c(c1C#N)CC[C@H]1C(C)(C)C(=O)C(C#N)=C[C@]21C` [TX63613]: the pIC50 under setting [1] is 7.00.
For `CC1(C)C(=O)C(C#N)=C[C@]2(C)c3c(cnc4c(Br)cnn34)CC[C@@H]12` [TX63615], under setting [1], the pIC50 is 7.28.
Regarding `CC1(C)C(=O)C(C#N)=C[C@]2(C)c3nc4c(Br)cnn4cc3CC[C@@H]12` [TX63617], the pIC50 under setting [1] is 7.48.
Same read-out and setting: for `Cn1nc2c(c1C(N)=O)CC[C@H]1C(C)(C)C(=O)C(C#N)=C[C@]21C` [TX63619] the value was less than 6.70.
On to `Cc1noc(C)c1-c1c2c(nn1C)[C@@]1(C)C=C(C#N)C(=O)C(C)(C)[C@@H]1CC2` [TX63625], for which, under setting [1], the pIC50 is 7.11.
On the same count and under the same terms, the same measure for `CC1(C)C(=O)C(C#N)=C[C@]2(C)c3c(cnc4c(-c5ccccc5)cnn34)CC[C@@H]12` [TX63626]: 7.42; for `CC1(C)C(=O)C(C#N)=C[C@]2(C)c3c(cnc4ccnn34)CC[C@@H]12` [TX63627]: 7.42; for `Cc1nc(-c2ncc3c(n2)[C@@]2(C)C=C(C#N)C(=O)C(C)(C)[C@@H]2CC3)cs1` [TX63628]: 7.21.
As to `Cn1nc2c(c1-c1ccccc1)CC[C@H]1[C@H](c3ccccc3)C(=O)C(C#N)=C[C@]21C` [TX63629], the pIC50 under setting [1] was 6.86.
For the compound `CCOC(=O)c1c2c(nn1C)[C@@]1(C)C=C(C#N)C(=O)C(C)(C)[C@@H]1CC2` [TX63630], the pIC50 under setting [1] was 7.42.
Consider `Cn1nc2c(c1C(=O)O)CC[C@H]1C(C)(C)C(=O)C(C#N)=C[C@]21C` [TX63631], for which the pIC50 under setting [1] was less than 6.70.
Consider `CC1(C)C(=O)C(C#N)=C[C@]2(C)c3nc(-c4ccncc4)ncc3CC[C@@H]12` [TX63636], for which the pIC50 under setting [1] was 7.57.
Same read-out and setting: the same measure for `Cc1c2c(nn1C)[C@@]1(C)C=C(C#N)C(=O)C(C)(C)[C@@H]1CC2` [TX63637]: 7.35; for `CC1(C)C(=O)C(C#N)=C[C@]2(C)c3nc(-c4ccccn4)ncc3CC[C@@H]12` [TX63641]: 7.37.
Regarding `CC1(C)C(=O)C(C#N)=C[C@]2(C)c3nn(C(=O)c4ccccc4)cc3CC[C@@H]12` [TX63642], the pIC50 under setting [1] is 6.83.
Take `COc1nc(C)nc2c1CC[C@H]1[C@H](C)C(=O)C(C#N)=C[C@]21C` [TX63646]: the pIC50 under setting [1] was 8.07.
